Test results taken from US11207322B2, “Method and composition related to combination therapy for addiction” (Board of Regents, The University of Texas System, priority 2017, dated 2021).
“Also recorded” adds a separate entry of the source.

How the values were obtained:
5-HT2C receptors = settings: in vivo; cited from earlier work
[1] = system: rhesus and cynomolgus monkeys; settings: in vivo; cited from earlier work
[2] = system: rhesus monkeys responding for 0.032 mg/kg/inf cocaine; settings: cited from earlier work; for effectiveness on cocaine self-administration with daily dosing: administered daily for 10-14 days
[3] = e.g., valvulopathies; cited from earlier work
DA D3 receptor [4] = molecular target: T1, DA D3 receptor (Homo sapiens, UniProt P35462); settings: in vivo; cited from earlier work
T1 sequence (P35462 whole entry): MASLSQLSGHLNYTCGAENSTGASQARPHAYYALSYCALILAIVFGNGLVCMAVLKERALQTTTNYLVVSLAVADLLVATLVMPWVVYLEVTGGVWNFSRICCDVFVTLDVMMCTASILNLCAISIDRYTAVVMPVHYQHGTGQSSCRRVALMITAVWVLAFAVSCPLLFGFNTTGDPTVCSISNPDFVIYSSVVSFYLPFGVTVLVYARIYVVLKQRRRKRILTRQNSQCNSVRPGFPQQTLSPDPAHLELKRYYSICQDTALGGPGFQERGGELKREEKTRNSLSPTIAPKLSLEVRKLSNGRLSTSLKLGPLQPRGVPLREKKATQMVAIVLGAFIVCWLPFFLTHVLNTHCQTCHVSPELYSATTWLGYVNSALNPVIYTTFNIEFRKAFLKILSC

[5] = system: rhesus monkeys, responding reinstated by cocaine; experiment: cocaine-primed reinstatement of extinguished responding for cocaine; format: in vivo, rhesus monkey; settings: 0.32 mg/kg cocaine prime; 4 rhesus monkeys
Protocol: Reinstatement of responding for cocaine.
Experimental design. Monkeys will respond for 0.032 mg/kg/inf cocaine under a FR30:TO180-sec schedule of reinforcement during daily 90-min sessions. During extinction, all stimulus lights will be extinguished with responding being recorded but having no scheduled consequence. During reinstatement tests, the drug-associated stimuli (i.e., the green and red stimulus lights) will be presented according to an FR30:TO180-sec schedule but no infusions will be delivered. Priming infusions of cocaine or saline will be injected directly into the vascular access port (followed by a 5-ml saline flush) 5 min before the start of the session.
The acute effects of lorcaserin (0.1-3.2 mg/kg; SC; 15 min PT) and buspirone (0.1-3.2 mg/kg; SC; 15 min PT) alone will be studied prior to evaluating mixtures. Because the nature of drug-drug interactions can vary depending upon the composition of the mixture, lorcaserin and buspirone will be evaluated over at least three fixed-dose pairs of at least three fixed-ratios (i.e., 3:1, 1:1, and 1:3), using the strategy described above. Mixtures will be based on the effects of lorcaserin and buspirone alone and customized to individual monkeys. […] Additional fixed-ratios mixtures (10:1 or 1:10) will be evaluated if significant, non-additive interactions are observed with either 3:1 or 1:3 ratios, respectively. […]

humans [6] = settings: cited from earlier work
[7] = system: rhesus monkeys responding for 0.032 mg/kg/inf cocaine; experiment: cocaine self-administration under a progressive ratio (PR) schedule; format: in vivo, rhesus monkey; settings: for effect on PR responding for cocaine (reinforcing effectiveness of cocaine): 0.032 mg/kg/inf cocaine, 4 rhesus monkeys (2 male, 2 female), acute
humans [8] = settings: cited from earlier work; remark: listed apart in the source
DA D3 receptor [9] = molecular target: T1, DA D3 receptor; settings: cited from earlier work
obese adults = settings: in vivo; cited from earlier work
recreational drug users = settings: 20-60 mg; cited from earlier work
[10] = molecular target: T2, 5-HT2C over 5-HT2A receptors (Homo sapiens, UniProt P28335); settings: cited from earlier work
T2 construct: expressed in transfected cells
T2 sequence (P28335 33-458): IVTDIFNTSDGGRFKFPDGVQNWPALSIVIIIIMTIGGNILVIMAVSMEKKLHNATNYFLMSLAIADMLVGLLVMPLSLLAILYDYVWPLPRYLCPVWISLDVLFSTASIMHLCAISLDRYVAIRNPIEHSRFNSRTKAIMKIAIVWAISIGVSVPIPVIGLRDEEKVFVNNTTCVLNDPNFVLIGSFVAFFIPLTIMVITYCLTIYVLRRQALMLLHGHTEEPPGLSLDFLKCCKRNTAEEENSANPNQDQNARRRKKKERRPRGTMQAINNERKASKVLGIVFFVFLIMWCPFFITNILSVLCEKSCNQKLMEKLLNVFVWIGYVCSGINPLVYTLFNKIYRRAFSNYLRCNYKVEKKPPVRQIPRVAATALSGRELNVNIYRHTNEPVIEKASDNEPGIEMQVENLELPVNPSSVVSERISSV

5-HT2A receptor = settings: doses comparable to those required to reduce body weight in rats; cited from earlier work
[11] = molecular target: T3, 5-HT2C over 5-HT2B receptors (Homo sapiens, UniProt P28335); settings: cited from earlier work
T3 construct: expressed in transfected cells
T3 sequence (P28335 33-458): T2 sequence (P28335 33-458)

[12] = functional assays, transfected cells

Clc1cccc(COc2cncc(N3CCNCC3)n2)c1 [CP-809,101]
cocaine self-administration and/or reinstatement (5-HT2C receptors): decrease cocaine self-administration and/or inhibit the reinstatement of a response previously reinforced by cocaine

Clc1cncc(N2CCNCC2)n1 [MK 212]
cocaine self-administration and/or reinstatement (5-HT2C receptors): decrease cocaine self-administration and/or inhibit the reinstatement of a response previously reinforced by cocaine

C[C@H](N)Cn1ccc2cc(F)c(Cl)cc21 [Ro 60-0175]
cocaine self-administration and/or reinstatement (5-HT2C receptors): decrease cocaine self-administration and/or inhibit the reinstatement of a response previously reinforced by cocaine

c1cc2c3c(c1)[C@H]1CCC[C@H]1N3CCNC2 [WAY-163909]
cocaine self-administration and/or reinstatement (5-HT2C receptors): decrease cocaine self-administration and/or inhibit the reinstatement of a response previously reinforced by cocaine

O=C1CC2(CCCC2)CC(=O)N1CCCCN1CCN(c2ncccn2)CC1 [buspirone]
cocaine self-administration in monkeys (literature) [1]: reliably decreased cocaine self-administration | effectiveness on cocaine self-administration with daily dosing [2]: retain their effectiveness to reduce cocaine self-administration | cardiovascular complications [3]: devoid of serious cardiovascular complications | dose needed for clinically relevant DA D3 receptor occupancy relative to 60 mg maximal approved dose (DA D3 receptor [4]): at least 3 fold | effectiveness of cocaine to reinstate extinguished responding for cocaine [5]: dose-dependently decreases | reinforcing effects of cocaine in a human laboratory study (humans [6]; 30 mg): failed to alter the reinforcing effects of cocaine | effect on PR responding for cocaine (reinforcing effectiveness of cocaine) [7]: inhibited responding in a dose-dependent manner; also recorded: dose-dependently decreases the reinforcing effectiveness of cocaine | potency in males relative to females at decreasing cocaine self-administration ([7]; PR schedule, 2 male and 2 female monkeys, more potent in males): ~10 fold | sex-related difference in promoting abstinence (humans [8]; 60 mg dose): more effective at promoting abstinence in males than in females | abstinence from cocaine use, multi-site randomized double-blind placebo-controlled pilot study (humans [8]; 60 mg): failed to prolong abstinence from cocaine use | selective binding profile at DA D3 receptors (DA D3 receptor [9]): 5-70 fold | relative potency at 5-HT1A, DA D3, and DA D4 receptors (DA D3 receptor [9]; recent studies): roughly equipotent

CN1CCc2cc(Cl)c(O)cc2[C@H]2c3ccccc3CC[C@@H]21 [ecopipam]
subjective or reinforcing effects of cocaine in humans (humans [6]; doses that did not produce sedation): failed to alter the subjective or reinforcing effects of cocaine

C[C@@H](Cc1ccccc1)NC(=O)[C@@H](N)CCCCN [lisdexamfetamine]
cocaine self-administration in monkeys (literature) [1]: consistently reduce cocaine self-administration | cocaine abstinence in a clinical setting (humans [8]; doses approved to treat ADHD): often ineffective at improving cocaine abstinence

C[C@H]1CNCCc2ccc(Cl)cc21 [lorcaserin]
cocaine self-administration under fixed ratio and PR schedules (earlier report of the inventors) ([2]; acute administration): dose-dependently inhibits cocaine self-administration | effectiveness on cocaine self-administration with daily dosing [2]: retain their effectiveness to reduce cocaine self-administration | persistence of anti-cocaine effects ([2]; repeated (daily) treatment): at least 14 days | weight loss (obese adults): modest, but sustained weight loss | subjective effects of supra-therapeutic doses (recreational drug users): subjective ratings of “high”, “good drug effects” and “hallucination” | cardiovascular complications [3]: devoid of serious cardiovascular complications | effectiveness of cocaine to reinstate extinguished responding for cocaine [5]: dose-dependently decreases | selectivity for 5-HT2C over 5-HT2A receptors [10, 12]: ~20 fold | selectivity over the 5-HT2A receptor ([10]; in vitro testing): 17 × | effect on PR responding for cocaine (reinforcing effectiveness of cocaine) [7]: inhibited responding in a dose-dependent manner; also recorded: dose-dependently decreases the reinforcing effectiveness of cocaine | sensitivity of females relative to males ([7]; PR schedule, 2 male and 2 female monkeys, females more sensitive): ~3 fold | head-twitches (5-HT2A receptor): produces 5-HT2A receptor-mediated head-twitches | selectivity for 5-HT2C over 5-HT2B receptors [11, 12]: ~100 fold | selectivity for (5-HT)2C versus 5-HT2B receptor ([11]; in vitro testing): 100 ×

Clc1cccc(N2CCNCC2)c1 [mCPP, meta-chlorophenylpiperazine]
cocaine self-administration and/or reinstatement (5-HT2C receptors): decrease cocaine self-administration and/or inhibit the reinstatement of a response previously reinforced by cocaine
